Literature values in patent US20130287890A1, “INHIBITOR OF THE PRODUCTION OF ADVANCED GLYCATION END PRODUCTS” (UENO FINE CHEMICALS INDUSTRY, LTD., priority 2012, published 2013).

Settings: background art; cited from earlier work

SMILES: N=C(N)NN [Aminoguanidine, aminoguanidine]
- adverse drug reactions: hepatic impairment
